Data on 6 molecules can be found in PMC7024204, “Synthesis, Crystal Structure, and Biological Activity of a Multidentate Calix[4]arene Ligand Doubly Functionalized by 2-Hydroxybenzeledene-Thiosemicarbazone” (Molecules, 2020).

In brackets after ≈: the same amount, converted by molar mass. Like-named read-outs stand apart in the source and are kept apart here.

In one series the test system is MG-63 cell line. Put plainly: MTT cytotoxicity assay. The series is classed as cell-based, human. The settings on record: for IC50: Homo sapiens, MG-63, MTT, 48 h, read-out: In vitro cytotoxic activity IC50; for anti-cancer effect: MG-63, especially at 2.5–20 μg/mL. As for the experimental part: (§1) The colorimetric MTT assay, introduced by Mossmann, was used for the evaluation of the anti-cancer activity of our synthesized compounds against Saos-2 and MG-63 cell lines (human bone cancer cells). These cells were obtained from the Pasteur Institute of Iran, Tehran, Iran and maintained in RPMI 1640 medium supplemented with 10% FBS and 1% benzylpenicillin/streptomycin. […] The cells without treatment were considered as the control. After 48 h, the medium was removed and replaced with 200 μL of fresh medium containing 100 μg mL^−1 MTT powder and incubated for a further 4 h. The medium was then withdrawn and 100 μL of DMSO was added to dissolve the formazan crystals inside the cells. The absorbance of solubilized formazan was detected at 570 nm with the reference wavelength of 630 nm using an ELISA plate reader (Stat Fax, 2100, Awareness Technology Inc., Palm City, FL, USA). The viability of cells in each well was calculated by the following formula:(1) viability of cells (%)=mean absorbance of sample/mean absorbance of control×100.
A general note: Tetrazolium dyes change colour on reduction, which living cells bring about.

Series [1] relates to Saos-2 cell line. Kind of series: MTT cytotoxicity assay. The settings on record: for IC50: Homo sapiens, Saos-2, MTT, 48 h, read-out: In vitro cytotoxic activity IC50; for anti-cancer effect: Saos-2, especially at 2.5–20 μg/mL. The series is classed as cell-based, human. As for the experimental part:
as §1

The subject of the next series is B. subtilis (ATCC 6633). Kind of series: Broth microdilution (serial double dilution) MIC/MBC. The series is classed as cell-based. The settings on record: Bacillus subtilis; for MIC: ATCC6633, 24 h, 37 °C, micro-broth dilution. As for the experimental part:
(§2) S. aureus (ATCC® 29213™), B. subtilis (ATCC® 6633™), E. coli (ATCC® 25922™), P. aeruginosa (ATCC® 27853™), C. albicans (ATCC® 10231™), and C. glabrata (ATCC® 2001™) were cultured onto sterile Mueller-Hinton agar plates, and incubated at 37 °C for 24 h. After incubation, a single colony was selected to inoculate a sterile tube containing 2 mL of sterile normal saline to match the turbidity of a 0.5 McFarland standard (10^8 cfu/mL). Further dilution was done with sterile normal saline to 10^5 cfu/mL before incubation.
(§3) Serial dilution of the synthesized compounds suspension in DMSO (2000–15.62 μg/mL) was done in a sterile 96-well plate. Then, 20 μL of an overnight bacterial and fungal suspension and 180 μL of the compounds suspension in MHB (and 1% glucose for fungal strains) were mixed in each well. The final concentration of DMSO was 10%. After 24 h of incubation at 37 °C, the first concentration with no bacterial growth is regarded as the minimum inhibitory concentration (MIC). Controls (microorganism strain in MHB without chemical and MHB alone) were included in each measurement. Aliquots of 5 μL from wells in which no growth was observed were spotted onto Mueller–Hinton agar plates to determine the minimum bactericidal concentration (MBC) values. The MBC was read as the lowest concentration with no growth after 24 h of incubation.
Background: Broth dilution looks for growth in wells or tubes with falling amounts of substance.

A further series relates to S. aureus (ATCC 29213). The series is described as above. The series is classed as cell-based. The settings on record: Staphylococcus aureus. The method, then:
as §2, §3

For a further series, the system named is E. coli (ATCC 25922). The description is as above. It is filed as cell-based, Escherichia coli. The settings on record: for MIC / MBC: Escherichia coli; for MIC: ATCC25922, 24 h, 37 °C, micro-broth dilution; for MBC: ATCC25922, micro-broth dilution. The method, then:
as §2, §3

Series [2] has as its system P. aeruginosa (ATCC 27853). The series is described as above. The series is classed as cell-based, Pseudomonas aeruginosa. As to conditions: for MIC: ATCC27853, 24 h, 37 °C, micro-broth dilution. As for the experimental part:
as §2, §3

Series [3] relates to C. albicans (ATCC 10231). The series is described as above. The series is classed as cell-based, Candida albicans. As to conditions: for MIC: 37 °C, micro-broth dilution. The method, then: as §2, §3
A further series has as its system Saos-2 cells. Put plainly: DAPI staining, morphology of cell nuclei. The series is classed as cell-based, human. The settings on record: Saos-2, 48 h exposure at IC50. The method, then: To visually study the apoptotic effects of the synthesized compounds (L and its Co, Ni, Cu, and Zn complexes), the 4′,6-diamidino-2-phenylindole (DAPI) staining assay was performed according to the literature procedure. Briefly, Saos-2 cells were seeded in six-well plates (5 × 10^4 cells per well) and incubated at 37 °C for 24 h. After the growth of the cells, the culture media were replaced by fresh media containing L and its metal derivatives (sterile filtered through 500 nm) at their half-maximal inhibitory growth concentration (IC50). Cells receiving no treatment were considered as the control group. After 48 h, the cells were washed three times with fresh PBS (pH 7.4) to remove any chemical compounds. Subsequently, the cells were fixed with 4 wt% paraformaldehyde for 15 min at room temperature. Afterwards, the cells were washed three times with PBS and permeabilized with Triton X-100 (0.1% w/v) for 5 min. The cells were washed again with PBS and stained with 300 ng mL^−1 DAPI for 15 min. DNA condensation and fragmentation in apoptotic cells were evaluated under a fluorescence microscope.

The next series relates to C. glabrata (ATCC 2001). Put plainly: Broth microdilution (serial double dilution) MIC/MBC. The series is classed as cell-based, Candida glabrata. The settings on record: 24 h, 37 °C, micro-broth dilution. The method, then: as §2, §3
Series [4] relates to C. albicans (ATCC 10231). More on the design: method as in PMID 31649917. As to conditions: cited from earlier work.
For series [5], the system named is Saos-2 cell line. The arrangement: method as in PMID 31649917. The settings on record: Saos-2, thiosemicarbazide ligand and metal derivatives; cited from earlier work.

What is called IC50 is the point on the concentration scale where inhibition reaches its midpoint. For `COc1cccc2c1C(=O)c1c(O)c3c(c(O)c1C2=O)C[C@@](O)(C(=O)CO)C[C@@H]3O[C@H]1C[C@H](N)[C@H](O)[C@H](C)O1` [DOX, doxorubicin], in the series with MG-63 cell line, the IC50 was determined as 10.1 mg/L (≈ 18.6 µM) and the “anti-cancer effect” value is listed as “strong anti-cancer effects”. Besides, in the series with Saos-2 cell line [1], the half-inhibitory concentration (IC50) amounted to 2.1 mg/L (≈ 3.86 µM) and the “anti-cancer effect” value is reported as “strong anti-cancer effects”.
Broadly, the MIC is the smallest concentration in the dilution series that meets the test's criterion for growth inhibition. As to `CNC(C)C1CCC(N)C(OC2C(N)CC(N)C(OC3OCC(C)(O)C(NC)C3O)C2O)O1` (stereo not shown) [Gentamicin], the MIC in the series on B. subtilis (ATCC 6633) turned out to be 2 mg/L (≈ 4.19 µM); against S. aureus (ATCC 29213) (ATCC29213, 24 h, 37 °C, micro-broth dilution) it was 0.12 mg/L (≈ 0.251 µM); against E. coli (ATCC 25922), 0.5 mg/L (≈ 1.05 µM); in series [2] (Pseudomonas aeruginosa) it was 2 mg/L (≈ 4.19 µM). Moreover, the MBC with B. subtilis (ATCC 6633) (ATCC6633, micro-broth dilution) is 2 mg/L (≈ 4.19 µM); in the series with S. aureus (ATCC 29213) (ATCC29213, micro-broth dilution) it was 0.25 mg/L (≈ 0.523 µM); against E. coli (ATCC 25922) it was 0.5 mg/L (≈ 1.05 µM); in [2] (Pseudomonas aeruginosa, ATCC27853, micro-broth dilution), 2 mg/L (≈ 4.19 µM).
As usually defined, the melting point is the temperature of the solid-liquid transition. With `CC(C)(C)c1cc2c(O)c(c1)Cc1cc(C(C)(C)C)cc(c1OCCNC(=S)NN=Cc1ccccc1O)Cc1cc(C(C)(C)C)cc(c1O)Cc1cc(C(C)(C)C)cc(c1OCCNC(=S)NN=Cc1ccccc1O)C2` [Ligand L, 5, 11, 17, 23-tetra-tert-butyl-26, 28-dihydroxy-25, 27-bis(2(2-hydroxybenzeledene)thiosemicarbazonoethoxy) calix[4]arene], the melting point is 230 °C (dec.). The molecule further gave an MIC in the series on B. subtilis (ATCC 6633) of 31.2 mg/L (≈ 28.6 µM). In addition, the “antifungal activity” value in the series with C. albicans (ATCC 10231) [3] is on record as “strong”. In addition, the MIC in the series with C. albicans (ATCC 10231) [3] (Candida albicans, ATCC10231, 24 h, read-out: MIC) is 31.2 mg/L (≈ 28.6 µM). This molecule also registered an MBC against C. albicans (ATCC 10231) [3] (Candida albicans, ATCC10231, micro-broth dilution) of 125 mg/L (≈ 115 µM). In the series with C. albicans (ATCC 10231) [3] (listed as thiosemicarbazone schiff-base ligand), the “antifungal activity” value is reported as “significant antifungal activity”. The “morphology of cell nuclei (DAPI-stained cells)” value with Saos-2 cells is “deformed and fragmented nuclei”. Besides, the IC50 in the series with MG-63 cell line was over 200 mg/L. In addition, the IC50 in the series on Saos-2 cell line [1] was under 25 mg/L. In addition, in the series on E. coli (ATCC 25922), the “improvement of MIC in comparison with thiosemicarbazide equivalent” value was 8 fold, it took 31.2 mg/L (≈ 28.6 µM) to inhibit growth (MIC) and the MBC stood at 31.2 mg/L (≈ 28.6 µM). Also, in series [2], the “improvement of MIC in comparison with thiosemicarbazide equivalent” value came out at 2 fold. For the same molecule, the MIC in series [2] (Pseudomonas aeruginosa) stood at 31.2 mg/L (≈ 28.6 µM).
Consider `CN(Cc1cnc2nc(N)nc(N)c2n1)c1ccc(C(=O)N[C@@H](CCC(=O)O)C(=O)O)cc1` [MTX, Methotrexate], for which, in the series on MG-63 cell line, the IC50 came to 14.5 mg/L (≈ 31.9 µM) and the “anti-cancer effect” value was “strong anti-cancer effects”. Further, in the series on Saos-2 cell line [1], the IC50 was found to be 7.9 mg/L (≈ 17.4 µM) and the “anti-cancer effect” value was “strong anti-cancer effects”.
With `C[C@@H]1[C@H](O)[C@@H](C)/C=C/C=C/CC/C=C/C=C/C=C/C=C/C(O[C@H]2O[C@H](C)[C@@H](O)[C@H](N)[C@@H]2O)CC2O[C@](O)(CC(O)C(O)CCC(O)CC(O)CC(O)CC(=O)O[C@H]1C)CC(O)C2C(=O)O` (stereo partly shown) [Nystatin], the MIC is 1.25 mg/L (≈ 1.35 µM) against C. albicans (ATCC 10231) [3] (24 h) and 0.625 mg/L (≈ 0.675 µM) in the series with C. glabrata (ATCC 2001).
With “Bisthiosemicarbazide-substituted p-tert-butylcalix[4]arene [thiosemicarbazide ligand]”, the “antifungal activity” value in the series with C. albicans (ATCC 10231) [4] is “resistant”. For the same molecule, the IC50 in the series with Saos-2 cell line [5] is over 200 mg/L.
